Measured values reported in ChEMBL document CHEMBL1152560, “Substituted 2-arylbenzothiazoles as kinase inhibitors: hit-to-lead optimization” (Bioorg Med Chem, 2009).

Tests used:
[1] = target: G protein-coupled receptor kinase 6 (Homo sapiens) (UniProt P43250); assay: Residual activity of GRK6 at 1 uM by microplate scintillation counting
[2] = target: Tyrosine-protein kinase Fgr (Homo sapiens) (UniProt P09769); assay: Residual activity of FGR at 0.1 uM by microplate scintillation counting
[3] = target: T1, Inhibitor of nuclear factor kappa-B kinase subunit beta (Homo sapiens) (UniProt O14920); assay: Residual activity of IKK-beta at 0.1 uM by microplate scintillation counting
T1 sequence (whole entry): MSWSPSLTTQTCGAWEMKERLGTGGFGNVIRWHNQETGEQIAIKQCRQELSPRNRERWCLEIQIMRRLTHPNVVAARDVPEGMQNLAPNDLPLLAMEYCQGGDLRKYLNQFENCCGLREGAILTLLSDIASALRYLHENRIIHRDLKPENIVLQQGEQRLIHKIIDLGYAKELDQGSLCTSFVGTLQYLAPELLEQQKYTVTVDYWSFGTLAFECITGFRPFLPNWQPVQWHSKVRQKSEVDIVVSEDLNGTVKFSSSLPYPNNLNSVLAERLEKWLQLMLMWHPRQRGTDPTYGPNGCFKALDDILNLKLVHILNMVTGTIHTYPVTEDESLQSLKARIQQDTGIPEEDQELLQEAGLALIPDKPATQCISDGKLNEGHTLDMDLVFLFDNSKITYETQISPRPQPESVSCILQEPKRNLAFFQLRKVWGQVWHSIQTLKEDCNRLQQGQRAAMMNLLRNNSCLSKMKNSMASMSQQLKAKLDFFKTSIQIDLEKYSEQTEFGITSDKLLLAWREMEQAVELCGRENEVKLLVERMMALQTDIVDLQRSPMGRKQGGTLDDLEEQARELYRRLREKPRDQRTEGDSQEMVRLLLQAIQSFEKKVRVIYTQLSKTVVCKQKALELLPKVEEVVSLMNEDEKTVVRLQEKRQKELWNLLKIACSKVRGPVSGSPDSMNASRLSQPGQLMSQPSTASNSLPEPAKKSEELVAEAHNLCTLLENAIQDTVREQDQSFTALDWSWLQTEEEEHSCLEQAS

[4] = target: T1, Inhibitor of nuclear factor kappa-B kinase subunit beta (Homo sapiens); assay: Residual activity of IKK-beta at 1 uM by microplate scintillation counting
[5] = target: T2, cGMP-dependent protein kinase 1 (Homo sapiens) (UniProt Q13976); assay: Residual activity of PRKG1 at 1 uM by microplate scintillation counting
T2 sequence (whole entry): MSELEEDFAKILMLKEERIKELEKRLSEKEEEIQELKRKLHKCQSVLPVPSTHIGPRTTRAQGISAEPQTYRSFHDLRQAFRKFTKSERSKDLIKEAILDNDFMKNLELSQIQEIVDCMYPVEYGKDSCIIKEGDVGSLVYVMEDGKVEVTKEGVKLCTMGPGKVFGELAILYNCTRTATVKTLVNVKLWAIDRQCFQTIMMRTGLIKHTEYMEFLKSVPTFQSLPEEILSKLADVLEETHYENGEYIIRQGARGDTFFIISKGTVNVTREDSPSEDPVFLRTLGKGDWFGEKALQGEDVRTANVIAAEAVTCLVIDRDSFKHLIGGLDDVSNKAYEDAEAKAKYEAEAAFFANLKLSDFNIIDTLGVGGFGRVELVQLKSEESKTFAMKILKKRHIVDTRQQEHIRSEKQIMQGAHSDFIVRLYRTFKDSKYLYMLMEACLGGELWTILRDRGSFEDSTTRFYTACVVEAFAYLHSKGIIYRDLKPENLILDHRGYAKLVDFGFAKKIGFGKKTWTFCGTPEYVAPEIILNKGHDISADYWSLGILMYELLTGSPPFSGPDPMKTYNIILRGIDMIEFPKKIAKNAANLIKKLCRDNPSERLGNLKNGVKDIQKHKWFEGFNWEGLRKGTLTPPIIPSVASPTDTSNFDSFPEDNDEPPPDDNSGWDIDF

[6] = target: Ribosomal protein S6 kinase alpha-1 (Homo sapiens) (UniProt Q15418); assay: Residual activity of RPS6KA1 at 1 uM by microplate scintillation counting
[7] = target: Macrophage colony-stimulating factor 1 receptor (Homo sapiens) (UniProt P07333); assay: Residual activity of CSF1R at 10 uM by microplate scintillation counting
[8] = target: Tyrosine-protein kinase Fyn (Homo sapiens) (UniProt P06241); assay: Residual activity of FYN at 10 uM by microplate scintillation counting
[9] = target: Eukaryotic translation initiation factor 2-alpha kinase 1 (Homo sapiens) (UniProt Q9BQI3); assay: Residual activity of HRI at 10 uM by microplate scintillation counting
[10] = target: T3, Interleukin-1 receptor-associated kinase 4 (Homo sapiens) (UniProt Q9NWZ3); assay: Residual activity of IRAK4 at 10 uM by microplate scintillation counting
T3 sequence (whole entry): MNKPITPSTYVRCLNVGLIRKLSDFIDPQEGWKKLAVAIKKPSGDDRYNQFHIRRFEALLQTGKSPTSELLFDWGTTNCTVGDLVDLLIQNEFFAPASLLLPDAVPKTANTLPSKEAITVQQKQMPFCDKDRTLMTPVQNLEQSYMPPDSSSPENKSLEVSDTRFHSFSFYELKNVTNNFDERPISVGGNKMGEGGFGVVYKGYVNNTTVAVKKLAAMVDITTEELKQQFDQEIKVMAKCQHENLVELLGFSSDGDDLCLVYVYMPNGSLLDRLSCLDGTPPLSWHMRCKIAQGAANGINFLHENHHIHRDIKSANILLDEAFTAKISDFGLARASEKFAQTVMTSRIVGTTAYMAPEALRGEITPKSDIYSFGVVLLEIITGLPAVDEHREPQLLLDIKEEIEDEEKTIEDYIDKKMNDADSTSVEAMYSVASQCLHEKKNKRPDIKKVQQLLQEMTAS

[11] = target: Vascular endothelial growth factor receptor 3 (Homo sapiens, UniProt P35916); assay: Residual activity of VEGFR3 at 0.1 uM by microplate scintillation counting
[12] = target: Dual specificity tyrosine-phosphorylation-regulated kinase 1B (Homo sapiens) (UniProt Q9Y463); assay: Residual activity of DYRK1B at 0.1 uM by microplate scintillation counting
[13] = target: Serine/threonine-protein kinase MARK2 (Homo sapiens) (UniProt Q7KZI7); assay: Residual activity of MARK2 at 10 uM by microplate scintillation counting
[14] = target: CDK8/Cyclin C (Homo sapiens) (UniProt P49336+P24863); assay: Residual activity of CDK8/Cyclin C at 0.1 uM by microplate scintillation counting; assay type: protein-complex assay
[15] = target: Proto-oncogene tyrosine-protein kinase ROS (Homo sapiens) (UniProt P08922); assay: Residual activity of ROS at 0.1 uM by microplate scintillation counting
[16] = target: Ribosomal protein S6 kinase alpha-5 (Homo sapiens) (UniProt O75582); assay: Residual activity of RPS6KA5 at 0.1 uM by microplate scintillation counting
[17] = target: BDNF/NT-3 growth factors receptor (Homo sapiens) (UniProt Q16620); assay: Residual activity of TRK-B at 10 uM by microplate scintillation counting

Sequence of Tyrosine-protein kinase Fyn (Homo sapiens) (P06241 2-537 limits assumed): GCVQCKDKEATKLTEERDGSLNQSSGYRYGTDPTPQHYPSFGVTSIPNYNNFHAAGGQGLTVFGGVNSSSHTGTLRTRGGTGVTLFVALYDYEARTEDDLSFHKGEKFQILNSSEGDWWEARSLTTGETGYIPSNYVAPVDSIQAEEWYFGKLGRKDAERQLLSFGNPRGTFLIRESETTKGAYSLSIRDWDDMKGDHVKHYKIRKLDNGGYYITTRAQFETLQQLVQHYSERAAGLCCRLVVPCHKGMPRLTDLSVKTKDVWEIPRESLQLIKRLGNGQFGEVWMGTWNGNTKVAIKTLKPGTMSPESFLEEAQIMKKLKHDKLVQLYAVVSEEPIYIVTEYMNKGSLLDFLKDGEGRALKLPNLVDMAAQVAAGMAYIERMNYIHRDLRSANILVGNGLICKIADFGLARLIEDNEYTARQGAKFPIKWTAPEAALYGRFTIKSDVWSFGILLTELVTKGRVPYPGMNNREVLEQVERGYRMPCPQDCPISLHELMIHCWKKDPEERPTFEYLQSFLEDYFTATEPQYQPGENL
Sequence of Vascular endothelial growth factor receptor 3 (P35916 whole entry): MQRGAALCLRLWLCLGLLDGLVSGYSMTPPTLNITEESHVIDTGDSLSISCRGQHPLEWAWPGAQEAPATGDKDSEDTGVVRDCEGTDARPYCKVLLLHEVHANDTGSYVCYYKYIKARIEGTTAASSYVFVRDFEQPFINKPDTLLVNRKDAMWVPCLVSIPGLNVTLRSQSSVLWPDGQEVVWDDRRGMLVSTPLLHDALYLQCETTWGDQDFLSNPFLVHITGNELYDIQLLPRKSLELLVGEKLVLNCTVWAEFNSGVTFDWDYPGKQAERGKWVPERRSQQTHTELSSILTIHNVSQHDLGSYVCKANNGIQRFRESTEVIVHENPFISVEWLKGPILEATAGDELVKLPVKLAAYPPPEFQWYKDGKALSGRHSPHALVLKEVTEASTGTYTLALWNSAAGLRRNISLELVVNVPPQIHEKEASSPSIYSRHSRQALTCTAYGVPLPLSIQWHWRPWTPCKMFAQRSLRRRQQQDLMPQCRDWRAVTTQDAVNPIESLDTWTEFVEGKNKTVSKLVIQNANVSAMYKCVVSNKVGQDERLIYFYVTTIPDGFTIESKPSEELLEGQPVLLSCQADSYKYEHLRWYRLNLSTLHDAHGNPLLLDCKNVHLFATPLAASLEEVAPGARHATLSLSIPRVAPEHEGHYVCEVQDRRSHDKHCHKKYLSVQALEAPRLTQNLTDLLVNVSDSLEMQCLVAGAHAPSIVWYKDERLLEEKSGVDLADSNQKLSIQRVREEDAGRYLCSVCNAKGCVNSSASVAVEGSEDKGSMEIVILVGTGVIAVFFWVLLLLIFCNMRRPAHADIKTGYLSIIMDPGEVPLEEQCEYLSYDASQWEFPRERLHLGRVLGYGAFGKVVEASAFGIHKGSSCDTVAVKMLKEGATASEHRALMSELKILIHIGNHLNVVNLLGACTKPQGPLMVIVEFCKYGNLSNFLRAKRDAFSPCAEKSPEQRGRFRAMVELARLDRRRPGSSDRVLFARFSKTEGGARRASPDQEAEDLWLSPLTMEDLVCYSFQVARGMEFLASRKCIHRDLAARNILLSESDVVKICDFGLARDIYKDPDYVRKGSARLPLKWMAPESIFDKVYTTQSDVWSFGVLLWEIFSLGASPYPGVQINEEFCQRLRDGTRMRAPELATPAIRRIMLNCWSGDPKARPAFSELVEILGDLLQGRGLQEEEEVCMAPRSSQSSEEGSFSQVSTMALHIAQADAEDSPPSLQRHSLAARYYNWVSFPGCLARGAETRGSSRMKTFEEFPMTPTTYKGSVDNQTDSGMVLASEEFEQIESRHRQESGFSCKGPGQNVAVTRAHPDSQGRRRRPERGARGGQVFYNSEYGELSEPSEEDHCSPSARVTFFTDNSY
Sequence of Ribosomal protein S6 kinase alpha-5 (Homo sapiens) (O75582 whole entry, looked up): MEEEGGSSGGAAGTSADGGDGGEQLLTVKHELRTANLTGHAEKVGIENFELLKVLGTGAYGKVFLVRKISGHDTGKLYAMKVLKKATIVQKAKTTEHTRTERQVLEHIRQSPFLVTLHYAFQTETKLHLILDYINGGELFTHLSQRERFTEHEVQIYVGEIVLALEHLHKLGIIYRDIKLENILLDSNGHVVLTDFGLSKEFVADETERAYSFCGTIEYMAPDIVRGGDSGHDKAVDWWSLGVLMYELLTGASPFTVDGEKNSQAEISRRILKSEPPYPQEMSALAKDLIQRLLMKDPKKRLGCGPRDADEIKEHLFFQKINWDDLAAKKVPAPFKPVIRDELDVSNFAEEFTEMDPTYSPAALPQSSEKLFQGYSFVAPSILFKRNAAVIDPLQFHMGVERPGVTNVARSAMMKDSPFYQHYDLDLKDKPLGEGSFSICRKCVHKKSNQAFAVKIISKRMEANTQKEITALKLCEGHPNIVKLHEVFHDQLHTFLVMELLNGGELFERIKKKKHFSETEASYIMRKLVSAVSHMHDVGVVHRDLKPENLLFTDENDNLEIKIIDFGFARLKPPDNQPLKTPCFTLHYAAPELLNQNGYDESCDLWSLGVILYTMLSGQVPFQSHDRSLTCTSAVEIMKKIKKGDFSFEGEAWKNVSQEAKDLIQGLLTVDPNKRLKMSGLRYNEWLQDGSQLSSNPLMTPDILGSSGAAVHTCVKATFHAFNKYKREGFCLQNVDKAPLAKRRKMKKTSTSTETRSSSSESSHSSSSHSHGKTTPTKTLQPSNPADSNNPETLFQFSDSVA
Sequence of Proto-oncogene tyrosine-protein kinase ROS (Homo sapiens) (P08922 whole entry): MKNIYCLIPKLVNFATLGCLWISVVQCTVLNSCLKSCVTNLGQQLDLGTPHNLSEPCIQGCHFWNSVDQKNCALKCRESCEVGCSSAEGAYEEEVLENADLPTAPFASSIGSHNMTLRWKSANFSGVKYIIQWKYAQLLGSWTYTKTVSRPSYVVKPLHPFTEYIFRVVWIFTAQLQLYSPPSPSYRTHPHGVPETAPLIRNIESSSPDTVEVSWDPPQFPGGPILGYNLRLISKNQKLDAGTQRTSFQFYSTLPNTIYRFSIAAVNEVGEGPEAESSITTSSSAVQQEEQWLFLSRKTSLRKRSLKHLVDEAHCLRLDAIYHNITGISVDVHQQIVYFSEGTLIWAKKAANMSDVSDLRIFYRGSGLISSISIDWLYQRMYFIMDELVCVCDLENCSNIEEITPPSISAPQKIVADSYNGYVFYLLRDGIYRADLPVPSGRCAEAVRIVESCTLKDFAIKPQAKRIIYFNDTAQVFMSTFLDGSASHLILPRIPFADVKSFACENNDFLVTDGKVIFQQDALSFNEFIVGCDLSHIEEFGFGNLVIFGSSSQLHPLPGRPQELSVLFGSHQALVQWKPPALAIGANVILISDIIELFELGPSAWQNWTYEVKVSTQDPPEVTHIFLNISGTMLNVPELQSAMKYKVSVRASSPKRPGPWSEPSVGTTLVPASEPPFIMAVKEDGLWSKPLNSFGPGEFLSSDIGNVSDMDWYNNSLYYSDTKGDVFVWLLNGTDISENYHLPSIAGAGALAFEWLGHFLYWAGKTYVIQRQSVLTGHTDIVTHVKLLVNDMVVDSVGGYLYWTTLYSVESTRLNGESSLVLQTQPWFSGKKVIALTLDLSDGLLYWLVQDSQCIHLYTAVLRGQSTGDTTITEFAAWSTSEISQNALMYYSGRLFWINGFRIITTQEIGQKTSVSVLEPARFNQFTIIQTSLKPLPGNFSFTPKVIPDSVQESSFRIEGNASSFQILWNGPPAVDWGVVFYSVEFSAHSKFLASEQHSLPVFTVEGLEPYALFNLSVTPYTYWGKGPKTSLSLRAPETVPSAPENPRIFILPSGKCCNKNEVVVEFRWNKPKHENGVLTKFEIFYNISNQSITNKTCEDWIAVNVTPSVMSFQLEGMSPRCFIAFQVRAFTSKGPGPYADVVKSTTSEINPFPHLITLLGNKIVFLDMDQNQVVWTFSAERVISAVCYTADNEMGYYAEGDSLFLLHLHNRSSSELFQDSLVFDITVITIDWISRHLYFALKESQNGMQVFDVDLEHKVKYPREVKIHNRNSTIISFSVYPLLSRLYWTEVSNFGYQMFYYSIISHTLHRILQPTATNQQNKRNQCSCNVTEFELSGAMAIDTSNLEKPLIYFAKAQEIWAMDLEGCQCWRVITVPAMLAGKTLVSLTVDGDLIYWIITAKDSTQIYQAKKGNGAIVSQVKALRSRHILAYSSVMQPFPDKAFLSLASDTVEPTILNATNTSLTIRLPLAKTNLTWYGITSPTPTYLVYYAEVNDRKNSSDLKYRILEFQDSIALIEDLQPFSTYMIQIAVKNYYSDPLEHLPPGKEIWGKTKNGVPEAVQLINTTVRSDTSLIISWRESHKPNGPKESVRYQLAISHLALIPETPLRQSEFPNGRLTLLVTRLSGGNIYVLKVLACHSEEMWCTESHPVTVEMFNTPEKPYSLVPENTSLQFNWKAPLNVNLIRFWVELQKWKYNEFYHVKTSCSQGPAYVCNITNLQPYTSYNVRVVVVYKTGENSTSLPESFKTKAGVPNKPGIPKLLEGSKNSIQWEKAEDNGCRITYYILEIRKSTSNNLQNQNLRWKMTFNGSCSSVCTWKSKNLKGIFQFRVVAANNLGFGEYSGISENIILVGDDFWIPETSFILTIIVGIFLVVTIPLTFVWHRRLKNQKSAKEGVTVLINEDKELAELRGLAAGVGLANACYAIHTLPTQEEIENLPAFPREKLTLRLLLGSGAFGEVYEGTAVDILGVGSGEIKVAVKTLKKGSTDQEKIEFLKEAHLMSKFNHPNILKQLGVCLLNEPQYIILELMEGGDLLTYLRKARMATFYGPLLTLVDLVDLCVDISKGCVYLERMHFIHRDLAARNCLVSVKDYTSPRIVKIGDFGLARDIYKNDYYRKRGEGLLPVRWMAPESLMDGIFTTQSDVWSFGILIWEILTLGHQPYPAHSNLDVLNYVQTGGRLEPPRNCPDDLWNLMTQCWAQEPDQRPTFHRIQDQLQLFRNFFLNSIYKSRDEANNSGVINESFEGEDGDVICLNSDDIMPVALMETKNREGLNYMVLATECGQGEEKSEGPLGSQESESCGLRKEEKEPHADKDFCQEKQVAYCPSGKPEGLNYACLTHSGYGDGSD

Row | Compound | residual activity [1] [%] | residual activity [2] [%] | residual activity [3] [%] | residual activity [4] [%] | residual activity [5] [%] | residual activity [6] [%] | residual activity [7] [%] | residual activity [8] [%] | residual activity [9] [%] | residual activity [10] [%] | residual activity [11] [%] | residual activity [12] [%] | residual activity [13] [%] | residual activity [14] [%] | residual activity [15] [%] | residual activity [16] [%] | residual activity [17] [%]
1 | COc1cc2c(Oc3ccc(-c4nc5ccccc5s4)cc3F)ncnc2cc1OCCCN1CCN(C)CC1 | 93 | 103 | 85 | 88 | 97 | 88 | 55 | 10 | 57 | 34 | 64 | 89 | 60 | 79 | 98 | 86 | 69
2 | COc1cc2c(Oc3ccc(-c4nc5ccccc5s4)cc3)ncnc2cc1OCCCN1CCCC1 | 90 | 96 | 91 | 98 | 101 | 74 | 131 | 70 | 112 | 26 | 57 | 98 | 72 | 94 | 84 | 96 | 82
3 | COc1cc2c(Oc3ccc(-c4nc5ccccc5s4)cc3)ncnc2cc1OCCCN1CCN(C)CC1 | 80 | 103 | 96 | 86 | 87 | 78 | 127 | 56 | 127 | 36 | 60 | 104 | 67 | 87 | 91 | 89 | 114
